Paper PMC10149214 (The Journal of Biological Chemistry, 2023)
Values joined by “and” are separate entries in the source; they are usually repeats but may differ in a detail not shown here. Identical values can stand only once.

Experiments:
[1] = design: method as in PMID 28082416, PMID 25792358; settings: cited from earlier work
ARAF^SSDD = molecular target: T1, ARAF^SSDD (Homo sapiens, UniProt P10398, G300S/Y301D/Y302D); experiment: TR-FRET kinase inhibition assay (MEK1 activation loop phosphorylation), ARAF^SSDD dimer; settings: for Hill slope: four-parameter fit, ARAF^SSDD 10 nM, ATP 200 μM
T1 sequence (P10398 274-606 G300S/Y301D/Y302D): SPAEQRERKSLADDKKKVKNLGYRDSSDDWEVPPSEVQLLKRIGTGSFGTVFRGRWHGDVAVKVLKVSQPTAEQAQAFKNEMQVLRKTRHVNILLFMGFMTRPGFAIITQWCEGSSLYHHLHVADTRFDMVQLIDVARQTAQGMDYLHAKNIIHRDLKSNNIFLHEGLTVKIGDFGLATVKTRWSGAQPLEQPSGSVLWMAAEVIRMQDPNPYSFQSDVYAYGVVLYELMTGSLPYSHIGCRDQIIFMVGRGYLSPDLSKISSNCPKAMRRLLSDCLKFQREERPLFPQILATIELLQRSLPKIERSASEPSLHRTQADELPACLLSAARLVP

CRAF = tested on: CRAF; design: method as in PMID 33355204; settings: purified CRAF; reaction conditions not provided; cited from earlier work
BRAF^WT = BRAF^WT (Homo sapiens, UniProt P15056); experiment: TR-FRET kinase inhibition assay (MEK1 activation loop phosphorylation), BRAF^WT dimer
CRAF^WT = CRAF^WT (Homo sapiens, UniProt P04049); experiment: TR-FRET kinase inhibition assay (MEK1 activation loop phosphorylation), CRAF^WT dimer
CRAF^SSDD = CRAF^SSDD (Homo sapiens, UniProt P04049, Y340D/Y341D); experiment: TR-FRET kinase inhibition assay (MEK1 activation loop phosphorylation), CRAF^SSDD dimer
BRAF^V600E = BRAF^V600E (Homo sapiens, UniProt P15056, V600E); experiment: TR-FRET kinase inhibition assay (MEK1 activation loop phosphorylation), BRAF^V600E monomer

SMILES | Brain penetration [1] | IC50 (ARAF^SSDD) [nM] | Ki (ARAF^SSDD) [nM] | Inhibition of ARAF^SSDD at highest inhibitor concentration (ARAF^SSDD; 10 μM, the highest inhibitor concentration achievable in this assay) | Hill slope (ARAF^SSDD) | IC50 (CRAF) [nM] | IC50 (BRAF^WT) [nM] | Ki (BRAF^WT) [nM] | Hill slope (BRAF^WT; four-parameter fit, BRAF^WT 1 nM, ATP 200 μM) | Ki (CRAF^WT) [nM] | IC50 (CRAF^WT; IC50, CRAF^WT 4 nM, ATP 200 μM, WT MEK1 substrate 250 nM, mean ± SD) | Hill slope (CRAF^WT; four-parameter fit, CRAF^WT 4 nM, ATP 200 μM) | IC50 (CRAF^SSDD) [nM] | Ki (CRAF^SSDD) [nM] | Hill slope (CRAF^SSDD; four-parameter fit, CRAF^SSDD 1 nM, ATP 200 μM) | IC50 (BRAF^V600E) [nM] | Ki (BRAF^V600E) [nM] | Hill slope (BRAF^V600E; four-parameter fit, BRAF^V600E 1 nM, ATP 200 μM)
C[C@@H](NC(=O)c1ncnc(N)c1Cl)c1ncc(C(=O)Nc2cc(C(F)(F)F)c(Cl)cn2)s1 [Tovorafenib] | brain-penetrant | > 3000 | > 40 | did not completely inhibit | −1.12 ± 0.42 |  |  |  |  |  |  |  |  |  |  |  |  | 
Cc1ccc(NC(=O)c2ccnc(C(F)(F)F)c2)cc1-c1cc(OCCO)nc(N2CCOCC2)c1 [Naporafenib, N-(3-(2-(2-Hydroxyethoxy)-6-morpholinopyridin-4-yl)-4-methylphenyl)-2-(trifluoromethyl)isonicotinamide] |  | 414 ± 186 | 5.71 ± 2.97 |  | −0.78 ± 0.05 | 0.07 | 13.4 ± 0.3 | 0.13 ± 0.08 | −2.73 ± 0.23 | 0.04 ± 0.03 | 3.7 nM and 3.66 nM | −2.57 ± 0.65 | 3.64 ± 0.36 | 0.01 ± 0.001 | −3.03 ± 0.73 | 49.2 ± 3 | 2.04 ± 0.83 | −0.96 ± 0.09
